Laboratory results from patent US20050113253A1, “Fertilizer” (priority 2003, published 2005).

Legend:
[1] = also printed as 187° F.; cited from earlier work
[2] = Solubility of prodiamine in N-methyl pyrrolidone liquid carrier; assay type: physicochemical; details: N-methyl pyrrolidone as liquid carrier; heating and gentle mixing
Source text: For example, when N-methyl pyrrolidone is used as the liquid carrier for prodiamine, concentrations of 50 wt. % or more can be easily achieved by heating and gentle mixing. For convenience, however, concentrations on the order of 10 to 50 wt. %, and especially about 30 to 40 wt. %, are appropriate.
A mixture of 37.6 wt. % Prodiamine Technical Grade Herbicide (94.8% active) obtained from SipCam Aro USA of Roswell, Ga., and 62.4 wt. % M-Pyrol (N-methyl pyrrolidone) solvent obtained from ISP Technologies, Inc., of Wayne, N.J., was heated to about 75° C. (about 165° F.) with mechanical stirring until the prodiamine completely dissolved. The composition so obtained was then allowed to cool to ambient and then sprayed onto a moving bed of particulate fertilizer composed of a mixture of different fertilizer ingredients having particle sizes ranging from 4.75 to 1.18 mm, a combined bulk density of 0.92 gms/cc and containing about 24% nitrogen, 5% phosphorous and 11% potassium, measured as units of total nitrogen (N), available phosphate (P2O5) and soluble potash (K2O).

SMILES	flash point [1]	concentration achievable (dissolved) in N-methyl pyrrolidone [2]
CN1CCCC1=O [N-methyl pyrrolidone]	~86 °C	
CCCN(CCC)c1c([N+](=O)[O-])cc(C(F)(F)F)c(N)c1[N+](=O)[O-] [prodiamine, 2,4-dinitro-N^3,N^3-di-n-propyl-6-(trfluoromethyl)-1,3-benzenediamine]		≥ 50 wt. %
